The text below walks through data of ChEMBL document CHEMBL1136650, “Glycine alpha-ketoamides as HCV NS3 protease inhibitors” (Bioorg Med Chem Lett, 2003).

By IC50 is commonly meant the midpoint of a concentration-inhibition curve. High values mean a need for much substance, low ones inhibition by little substance.

Numbered stars: 1 amine (or outer) side, 2 acyl side, 3 side chain; on linkers, the order of the positions; unused ones are H or OH. Square brackets hold non-standard residues; d marks the D form. Peptide text beside a SMILES is read from it. * marks the point of attachment. Abu(ψCOCO) = CC[C@H](N[*:1])C(=O)C(=O)[*:2]; X1 = O=C(C(=O)[*:2])[C@H](CC(F)F)N[*:1]; Pyrazinecarbonyl = O=C(c1cnccn1)*; X2 = CC(C)(N[*:1])C(=O)C(=O)[*:2]; X3 = O=C(C(=O)[*:2])C1(N[*:1])CC1; Cha = N[C@@H](CC1CCCCC1)C(=O)O; Aib = CC(C)(N)C(=O)O; NHAllyl = C=CCN*; Sar = CNCC(=O)O

The target of the test is Genome polyprotein (Hepatitis C virus genotype 1a (isolate 1) (HCV), UniProt P26664). In words: Inhibitory concentration against HCV NS3 protease was determined.
Genome polyprotein, sequence (P26664 1027-1657 limits assumed): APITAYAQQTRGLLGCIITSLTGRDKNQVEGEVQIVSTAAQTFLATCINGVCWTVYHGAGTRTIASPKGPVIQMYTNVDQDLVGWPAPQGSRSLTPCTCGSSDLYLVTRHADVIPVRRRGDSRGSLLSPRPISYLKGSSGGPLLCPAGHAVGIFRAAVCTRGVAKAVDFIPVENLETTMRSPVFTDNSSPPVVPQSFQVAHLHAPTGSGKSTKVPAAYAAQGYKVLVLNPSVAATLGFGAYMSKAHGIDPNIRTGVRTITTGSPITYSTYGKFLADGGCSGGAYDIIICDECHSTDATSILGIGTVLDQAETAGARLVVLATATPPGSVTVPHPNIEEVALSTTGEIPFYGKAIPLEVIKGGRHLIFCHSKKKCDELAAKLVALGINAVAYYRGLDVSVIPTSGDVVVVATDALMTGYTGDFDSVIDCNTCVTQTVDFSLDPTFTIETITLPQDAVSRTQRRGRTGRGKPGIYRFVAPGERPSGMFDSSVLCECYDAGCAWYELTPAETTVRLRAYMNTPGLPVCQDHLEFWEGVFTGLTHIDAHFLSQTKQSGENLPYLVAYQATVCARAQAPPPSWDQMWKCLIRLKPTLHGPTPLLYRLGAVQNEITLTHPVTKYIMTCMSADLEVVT
In the case of `CC[C@H](NC(=O)[C@H](CC1CCCCC1)NC(=O)[C@@H](NC(=O)[C@H](CC(C)C)NC(=O)c1cnccn1)[C@@H](C)CC)C(=O)C(=O)N1CCOCC1`, the half-inhibitory concentration (IC50) was above 60 µM. The value for `CCNC(=O)C(=O)[C@H](CC)NC(=O)[C@H](CC1CCCCC1)NC(=O)[C@@H](NC(=O)[C@H](CC(C)C)NC(=O)c1cnccn1)[C@@H](C)CC` was 1.8 µM. The value for `CC[C@H](NC(=O)[C@H](CC1CCCCC1)NC(=O)[C@@H](NC(=O)[C@H](CC(C)C)NC(=O)c1cnccn1)[C@@H](C)CC)C(=O)C(=O)NCc1ccccc1` was 11 µM; that for `CC[C@H](NC(=O)[C@H](CC1CCCCC1)NC(=O)[C@@H](NC(=O)[C@H](CC(C)C)NC(=O)c1cnccn1)[C@@H](C)CC)C(=O)C(=O)NC1CC1` was 2.2 µM. The same measure for `CC[C@H](NC(=O)[C@H](CC1CCCCC1)NC(=O)[C@@H](NC(=O)[C@H](CC(C)C)NC(=O)c1cnccn1)[C@@H](C)CC)C(=O)C(=O)N[C@H](C)C(=O)O`: above 60 µM; for `CC[C@H](NC(=O)[C@H](CC1CCCCC1)NC(=O)[C@@H](NC(=O)[C@H](CC(C)C)NC(=O)c1cnccn1)[C@@H](C)CC)C(=O)C(=O)NCCC(=O)O`: 12 µM; for `C=CCNC(=O)C(=O)[C@H](CC)NC(=O)[C@H](CC1CCCCC1)NC(=O)[C@@H](NC(=O)[C@H](CC(C)C)NC(=O)c1cnccn1)[C@@H](C)CC`: 2.7 µM. The compound `CC[C@H](NC(=O)[C@H](CC1CCCCC1)NC(=O)[C@@H](NC(=O)[C@H](CC(C)C)NC(=O)c1cnccn1)[C@@H](C)CC)C(=O)C(=O)N1CCCC1` registered an IC50 of 42 µM. The value for `CC[C@H](NC(=O)[C@H](CC1CCCCC1)NC(=O)[C@@H](NC(=O)[C@H](CC(C)C)NC(=O)c1cnccn1)[C@@H](C)CC)C(=O)C(=O)N[C@@H](C)C(=O)O` was 1.3 µM; that for `C#CCNC(=O)C(=O)[C@H](CC)NC(=O)[C@H](CC1CCCCC1)NC(=O)[C@@H](NC(=O)[C@H](CC(C)C)NC(=O)c1cnccn1)[C@@H](C)CC` was 1.6 µM; that for `C=CCNC(=O)C(=O)[C@H](CC)NC(=O)[C@@H]1CCCN1C(=O)[C@@H](NC(=O)[C@@H](NC(=O)[C@H](CCC(=O)O)NC(=O)[C@@H](N)CC(=O)O)C(C)C)C(C)C` (H-DEVVP[Abu(ψCOCO)]-NHAllyl) was 0.42 µM.

In turn, `CC[C@H](NC(=O)[C@H](CC1CCCCC1)NC(=O)[C@@H](NC(=O)[C@H](CC(C)C)NC(=O)c1cnccn1)[C@@H](C)CC)C(=O)C(=O)N[C@@H](CC(=O)O)C(=O)O` (Pyrazinecarbonyl-LI[Cha][Abu(ψCOCO)]D-OH) came in with an IC50 of 5.3 µM. The same measure for `CC[C@H](NC(=O)[C@H](CC1CCCCC1)NC(=O)[C@@H](NC(=O)[C@H](CC(C)C)NC(=O)c1cnccn1)[C@@H](C)CC)C(=O)C(=O)NCC(N)=O` (Pyrazinecarbonyl-LI[Cha][Abu(ψCOCO)]G-NH2): 4.3 µM; for `CC[C@H](NC(=O)[C@H](CC1CCCCC1)NC(=O)[C@@H](NC(=O)[C@H](CC(C)C)NC(=O)c1cnccn1)[C@@H](C)CC)C(=O)C(=O)NCC(=O)O` (Pyrazinecarbonyl-LI[Cha][Abu(ψCOCO)]G-OH): 0.23 µM. The same measure for `CC[C@H](NC(=O)[C@H](CC1CCCCC1)NC(=O)[C@@H](NC(=O)[C@H](CC(C)C)NC(=O)c1cnccn1)[C@@H](C)CC)C(=O)C(=O)NCC(=O)OC` (Pyrazinecarbonyl-LI[Cha][Abu(ψCOCO)]G-OMe): 5.8 µM; for `CC[C@H](NC(=O)[C@H](CC1CCCCC1)NC(=O)[C@@H](NC(=O)[C@H](CC(C)C)NC(=O)c1cnccn1)[C@@H](C)CC)C(=O)C(=O)N[C@@H](CCCCN)C(=O)O` (Pyrazinecarbonyl-LI[Cha][Abu(ψCOCO)]K-OH): 7.7 µM; for `CC[C@H](NC(=O)[C@H](CC1CCCCC1)NC(=O)[C@@H](NC(=O)[C@H](CC(C)C)NC(=O)c1cnccn1)[C@@H](C)CC)C(=O)C(=O)N[C@H](C(=O)O)C(C)C` (Pyrazinecarbonyl-LI[Cha][Abu(ψCOCO)]V-OH): 3.6 µM. The same measure for `CC[C@H](NC(=O)[C@H](CC1CCCCC1)NC(=O)[C@@H](NC(=O)[C@H](CC(C)C)NC(=O)c1cnccn1)[C@@H](C)CC)C(=O)C(=O)NC(C)(C)C(=O)O` (Pyrazinecarbonyl-LI[Cha][Abu(ψCOCO)][Aib]-OH): above 60 µM; for `CC[C@H](NC(=O)[C@H](CC1CCCCC1)NC(=O)[C@@H](NC(=O)[C@H](CC(C)C)NC(=O)c1cnccn1)[C@@H](C)CC)C(=O)C(=O)N(C)CC(=O)O` (Pyrazinecarbonyl-LI[Cha][Abu(ψCOCO)][Sar]-OH): above 60 µM; for `CC[C@H](C)[C@H](NC(=O)[C@H](CC(C)C)NC(=O)c1cnccn1)C(=O)N[C@@H](CC1CCCCC1)C(=O)N[C@@H](CC(F)F)C(=O)C(=O)NCC(=O)O` (Pyrazinecarbonyl-LI[Cha][X1]G-OH): 0.06 µM. In the case of `CC[C@H](C)[C@H](NC(=O)[C@H](CC(C)C)NC(=O)c1cnccn1)C(=O)N[C@@H](CC1CCCCC1)C(=O)NC(C)(C)C(=O)C(=O)NCC(=O)O` (Pyrazinecarbonyl-LI[Cha][X2]G-OH), the IC50 is above 60 µM. The value for `CC[C@H](C)[C@H](NC(=O)[C@H](CC(C)C)NC(=O)c1cnccn1)C(=O)N[C@@H](CC1CCCCC1)C(=O)NC1(C(=O)C(=O)NCC(=O)O)CC1` (Pyrazinecarbonyl-LI[Cha][X3]G-OH) was above 60 µM.
